Experimental data taken from patent publication EP1592418B1, “USE OF ENDOCANNABINOID-LIKE COMPOUNDS FOR TREATING CNS DEGENERATIVE DISORDERS” (Research & Innovation S.p.A., priority 2003, dated 2004).

Assays:
[1] = test system: Jurkat cells; test: Evaluation of cellular viability by MTT assay; type: cell-based, human; conditions: for Growth inhibition (% of control): 10 µM, incubated 18-24 hr, MTT, absorbance 570 nm
Procedure: Jurkat, an acute T-lymphoblastic leukemia cell line generated from a person, have been used. Cell culture have been cultured in RPMI-1640 culture medium containing 10% FBS.
Jurkat cells were cultured at 1x10^5 cells/ml in RPMI 1640 medium supplemented with 10% fetal bovine serum (FBS), 2mM L-glutamine and 100 U/ml penicillin + 100 ug/ml streptomycin.
To detect drug effect in vitro, MTT [3-(4,5-dimethylthiazol-2-yl)-2,5-diphenyltetrazolium bromide] assay was used as described (Carmichael J et al., 1987 Cancer Res. 47, 936-42). Briefly, cells were seeded in triplicate on 96-well culture plates at a density of 20000 cells/well. The drugs were added in order to have the final concentration of 10 µM (1 µl of a solution of 10mM in DMSO) and incubated for 18-24 hr. Then MTT (0.5 mg/ml) was added to each well, and plates were incubated for an additional 1 to 3 hr in the dark at 37 °C. After this time the MTT solution was aspirated from the wells and 0.1 ml of DMSO was added. The plates were allowed to stand for 10 min, and then the absorbance was determined in a SpectraCount (Packard) microplate reader at 570 nm. The drug effect was determined by comparing absorbances of treated and untreated cells.

[2] = Solubility (physico-chemical properties); type: physicochemical; conditions: for solubility: organic solvent or mixture, read-out: solubility in organic solvents
[3] = test system: reverse passive Arthus reaction, mouse ear pinna; test: Reverse passive Arthus reaction (RPA) in the mouse ear pinna: oedema and Evans blue extravasation; type: in vivo; conditions: for Extravasation / Riduction % (extravasation): 10 mg/Kg i.p.; for Extravasation: Evans blue density at 620 nm in ear homogenate supernatant, Vehicle 0,90±0,06, Naïve 0,04±0,01; for Oedema (mg): 10 mg/Kg intraperitoneally 1 hour before induction, weight increase of 8 mm punch vs contralateral ear, three hours after antigen, Vehicle 49,8 ± 1,2, Naive 23,7 ± 1,2; for Riduction % (extravasation): reduction of extravasation versus Vehicle (0)
Description: The Arthus model (RPA) is a model of immune-complex mediated tissue damage that involves the passive subcutaneous introduction of an antibody and the systemic administration of the corresponding antigen. This inflammatory model has been used to test the in vivo activity of the synthesised molecules.
The reverse passive Arthus reaction is induced, in the mouse ear pinna, by the subcutaneous injection of an excess of IgG anti human albumin followed by i.v. adiministration of the corresponding Ag (i.e. human albumin) together with Evans blue, 2 mg for each mouse, for the evaluation of extravasation.
The tested molecules were solubilised in DMSO, cremophor and PBS in a ratio of 1:1:18 and administered usually by intraperitonelly at the dosage of 10 mg/Kg 1 hour before the induction of anafilactic reaction. The animals were sacrificed 3 hours after the molecule administration.
The oedema and the extravasations are evaluated tree hours after the i.v. administration of the antigen. The oedema is evaluated as the increase of weight of lesioned ear area dissected by a 8 mm biopsy punch as compared to the contralateral unlesioned auricular tissues. The extravasation is measured determining the Evans blue density at 620 nm in the supernatants deriving from ear homogenates following centrifugation at 10000 x g for 20 min.

Row | Compound | Growth inhibition (% of control) [1] | solubility ([2]; in DMSO and in chloroform) [µg/mL] | solubility in water [2] | Extravasation ([3]; mouse ear) | Oedema (mg) ([3]; mouse ear) | Riduction % (extravasation) ([3]; mouse ear) | also measured
1 | CCCCCC/C=C\CCCCCCCC(=O)NC(C)C [Example 3, N-Isopropyl-palmitoleyl amide] | 60.5 % of control | > 10000 | scarcely soluble |  |  |  | 
2 | CCCCCCCC/C=C\CCCCCCCC(=O)NC(C)C [Example 5, N-Isopropyl-oleyl amide] | 66.6 % of control | > 10000 | scarcely soluble |  |  |  | 
3 | CCCCCCCCCCCCCCCCCCCC(=O)NC(C)C [Example 6, N-Isopropyl-arachidyl amide] | 41.0 % of control | > 10000 | scarcely soluble |  |  |  | 
4 | CCCCCCCCCCCCCCCCCC(=O)NCCc1ccccc1 [Example 7, N-β-phenylethyl-stearoyl amide] | 47.3 % of control | > 10000 | scarcely soluble |  |  |  | 
5 | CCCCCCCCCCCCCCCC(=O)OCCC [Example 8, n-propyl-palmitate] |  | > 10000 | scarcely soluble |  |  |  | 
6 | CCCCCCCCCCCCCCCCCC(=O)OCCC [Example 9, n-propyl-stearate] |  | > 10000 | scarcely soluble |  |  |  | 
7 | CCCCCCCCCCCCCCCC(=O)OC(C)C [Example 10, iso-propyl-palmitate] |  | > 10000 | scarcely soluble |  |  |  | 
8 | CCCCCCCCCCCCCCCCCC(=O)OC(C)C [Example 11, iso-propyl-stearate] |  | > 10000 | scarcely soluble |  |  |  | 
9 | CCCCCCCCCCCCCCCCCCNC(C)=O [Example 13, N-octadecyl-acetyl-amide] | 67.2 % of control | > 10000 | scarcely soluble | 0,74±0,07 | 43,3 ± 0.6 mg | 17.2% | 
10 | CCCCCCCCCCCCCCCC(=O)NC1CCCC1 [Example 14, N-cyclopentyl-palmitoyl amide] | 52.6 % of control |  | scarcely soluble |  |  |  | Extravasation ([3]; mouse ear, 10 mg/kg): 0,52±0,06; Oedema (mg) ([3]; mouse ear, 10 mg/kg): 39,5 ± 0.8 mg; Riduction % (extravasation) ([3]; mouse ear, 10 mg/kg): 32.3%; solubility in organic solvents ([2]; in DMSO and in chloroform): >10 mg/ml in DMSO and in chloroform
11 | CCCCCCCCCCCCCCCCCC(=O)NC1CCCCC1 [Example 16, N-cyclohexyl-stearoyl amide] | 18.2 % of control | > 10000 | scarcely soluble | 0,66±0,09 | 48,2 ± 1.8 mg | 26,7% | 
12 | CCCCCCCCCCCCCCCC(=O)NCCC [Example 17, N-propyl-palmitoyl amide] | 21.4 % of control | > 10000 | scarcely soluble | 0,52±0,12 | 32,3 ± 2.7 mg | 32.3% | 
13 | CCCCCCCCCCCCCCCCCC(=O)NCCC [Example 18, N- propyl-stearoyl amide] | 17.3 % of control | > 10000 | scarcely soluble | 0,54±0,03 | 33,3 ± 0.2 mg | 40.0% | 
14 | CCCCCCCCCCCCCCCC(=O)NC1CC1 [Example 19, N-cyclopropyl-palmitoyl amide] | 56.2 % of control | > 10000 | scarcely soluble | 0,32±0,02 | 31,8 ± 3.6 mg | 64.6% | 
15 | CCCCCCCCCCCCCCCCCC(=O)NC1CC1 [Example 20, N-cyclopropyl-stearoyl amide] | 64.2 % of control | > 10000 | scarcely soluble | 0,35±0,06 | 33,1 ± 0.9 mg | 61.2% | 
16 | CCCCCCCCCCCCCCCC(=O)NCCCC [Example 23, N-butyl-palmitoyl amide] | 36.0 % of control | > 10000 | scarcely soluble | 0,59±0,08 | 35,2 ± 1.7 mg | 34.5% | 
17 | CCCCCCCCCCCCCCCCCC(=O)NCCCC [Example 24, N- butyl-stearoyl amide] | 32.1 % of control | > 10000 | scarcely soluble | 0,55±0,07 | 33,6 ± 1.2 mg | 38.9% | 
18 | CCCCCCCCCCCCCCCCCC(=O)NCC(C)C [Example 26, N-isobutyl-stearoyl amide] |  | > 10000 | scarcely soluble | 0,81±0,05 | 40,3 ± 0.7 mg | 10.0% | 
19 | CCCCCCCCCCCCCCCCCC(=O)NC1CCC1 [Example 28, N-cyclobutyl-stearoyl amide] | 31.6 % of control | > 10000 | scarcely soluble | 0,31±0,12 | 40,6 ± 2.6 mg | 65.6% | 
20 | CCCCCCCCCCCCCCCC(=O)OCCCC [Example 29, n-butyl-palmitate] |  | > 10000 | scarcely soluble |  |  |  | 
21 | CCCCCCCCCCCCCCCCCC(=O)OCCCC [Example 30, n-butyl-stearate] |  | > 10000 | scarcely soluble |  |  |  | 
22 | CCCCCCCCCCCCCCCC(=O)OCC(C)C [Example 31, iso-butyl-palmitate] |  | > 10000 | scarcely soluble |  |  |  | 
23 | CCCCCCCCCCCCCCCCCC(=O)OCC(C)C [Example 32, iso-butyl-stearate] |  | > 10000 | scarcely soluble |  |  |  | 
24 | CCCCCCCCCCCCCCCC(=O)NCCCCC [Example 33, N-pentyl-palmitoyl amide] | 33.3 % of control | > 10000 | scarcely soluble | 0,72±0,06 | 43,9 ± 2.4 mg | 20.0% | 
25 | CCCCCCCCCCCCCCCC(=O)OCCCCC [Example 39, n-pentyl-palmitate] |  | > 10000 | scarcely soluble |  |  |  | 
26 | CCCCCCCCCCCCCCCCCC(=O)OCCCCC [Example 40, n-pentyl-stearate] |  | > 10000 | scarcely soluble |  |  |  | 
27 | CCCCCCCCCCCCCCCC(=O)OC1CCCC1 [Example 41, cyclopentyl-palmitate] |  | > 10000 | scarcely soluble |  |  |  | 
28 | CCCC(C)(C)c1ccc2c(c1)OC(C)(C)[C@@H]1CC=C(C)C[C@@H]21 [JWH 133, reference compound] | 2.0 % of control |  |  |  |  |  | reduction of oedema in vivo (in words) ([3]; mouse ear): unable; reduction of extravasation in vivo (in words) ([3]; mouse ear, i.p.): unable; cellular death in vitro (in words) [1]: unable
29 | CCCCCCCC/C=C\CCCCCCCC(N)=O [Oleylamide] | 22.1 % of control |  |  | 0,65±0,12 | 43,5 ± 2.6 mg | 21.8% | 
30 | SR144528 [reference compound] |  |  |  |  |  |  | antagonism of the anti-inflammatory effect of cannabinoid, endocannabinoid or molecules object of the invention (in words) ([3]; CB2 selective antagonist): did not antagonize
